Key:
Orco = target: T1, Orco (Drosophila melanogaster, UniProt Q9VNB5); assay: Response of BAM-immobilized Orco stable expression cell line; type: cell-based; conditions: Pv11-GCaMP6f-Orco stable expression cell line immobilized with BAM
T1 construct: remnant residues; expressed in transfected cells; host or cells: Pv11 cells (Polypedilum vanderplanki), knock-in at the Pv.00443 locus downstream of the 121 promoter, single-cell sorting
T1 sequence (Q9VNB5 1-486): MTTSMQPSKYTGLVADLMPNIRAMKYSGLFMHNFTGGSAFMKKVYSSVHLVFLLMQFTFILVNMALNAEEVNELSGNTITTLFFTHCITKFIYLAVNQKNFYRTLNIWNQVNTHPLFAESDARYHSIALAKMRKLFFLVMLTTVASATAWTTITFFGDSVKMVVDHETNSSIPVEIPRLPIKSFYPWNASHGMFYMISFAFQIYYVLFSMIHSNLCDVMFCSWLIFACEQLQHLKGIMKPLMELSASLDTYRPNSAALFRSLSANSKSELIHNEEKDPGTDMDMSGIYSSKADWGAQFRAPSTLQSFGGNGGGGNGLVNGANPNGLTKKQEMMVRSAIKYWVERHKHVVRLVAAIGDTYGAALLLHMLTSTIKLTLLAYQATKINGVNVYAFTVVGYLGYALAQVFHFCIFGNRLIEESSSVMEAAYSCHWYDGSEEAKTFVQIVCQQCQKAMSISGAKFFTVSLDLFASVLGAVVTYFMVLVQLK
Text: 8.1 Pv11 cell immobilization. A cell membrane modifier (BAM: Biocompatible Anchor for cell Membrane) was used to fix the stable expression cell line obtained above. BAM consists of a hydrophilic PEG chain, an NHS group, and a hydrophobic oleyl group; by bringing BAM into contact with a collagen-coated dish, the NHS group binds to collagen, and the oleyl group interacts with the cell membrane through hydrophobic interactions, allowing cells to adhere. BAM (SUNBRIGHT OE-040CS, Yuka Sangyo Co., Ltd.) was dissolved in DMSO (Fujifilm Wako Pure Chemical Industries) to a concentration of 10 mM. The 10 mM BAM solution was adjusted to DPBS(-) (Thermo Fisher) to a final concentration of 100 μM, 100 μl was dropped onto a collagen 1-coated 48-well microplate (IWAKI) and incubated at 37° C. for 1 hour. The BAM solution was removed, washed once with DPBS(-) (Thermo Fisher) and five times with MilliQ, and allowed to stand still to evaporate water droplets. The Pv11 cell suspension was centrifuged at 700 g for 3 minutes, the supernatant was removed, the cell pellet was suspended in DPBS(-) (Thermo Fisher) and dropped onto a BAM-coated dish. […]
8.2 Functional confirmation of exogenous membrane proteins in fixed cells. […] Each substance was reacted with each cell in the same manner as in 3.2 above, and the fluorescence intensity was measured. […]

Orco-Or47a = target: T2, Orco-Or47a (Drosophila melanogaster, UniProt P81921+Q9VNB5); assay: Response after rehydration with cycloheximide treatment, Orco-Or47a stable expression cell line; type: cell-based; set-up: remnant residues; expressed in transfected cells; host or cells: Pv11 cells (Polypedilum vanderplanki), CRIS-PITCh knock-in at the Pv.00443 locus downstream of the 121 promoter, Zeocin selection and single-cell sorting
T2 sequence (Q9VNB5 1-486): T1 sequence (Q9VNB5 1-486)
T2 sequence (P81921 1-385): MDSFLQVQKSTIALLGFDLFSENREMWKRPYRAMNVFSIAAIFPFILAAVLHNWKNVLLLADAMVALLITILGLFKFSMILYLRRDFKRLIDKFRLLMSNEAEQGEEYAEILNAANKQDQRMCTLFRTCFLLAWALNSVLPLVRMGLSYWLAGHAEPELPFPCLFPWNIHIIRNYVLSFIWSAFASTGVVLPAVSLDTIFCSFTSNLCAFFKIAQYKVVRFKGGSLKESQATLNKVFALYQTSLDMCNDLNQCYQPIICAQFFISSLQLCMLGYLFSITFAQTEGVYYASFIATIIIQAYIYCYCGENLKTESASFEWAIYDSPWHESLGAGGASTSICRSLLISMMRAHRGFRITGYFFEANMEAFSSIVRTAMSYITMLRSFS
Method: 7. Confirmation that exogenous membrane protein responses in Orco-Or47a stable expression cell lines immediately after rehydration are not due to de novo protein synthesis. To confirm that the membrane protein response of the Orco-Or47a stable expression cell line immediately after rehydration was not due to de novo protein synthesis, cells were treated with cycloheximide (CHX, a protein synthesis inhibitor).
A previous study reported that 0.35 mM of cycloheximide is able to inhibit protein production in Pv11 cells. Therefore, also in this experiment, cycloheximide was dissolved in IPL-41 medium so that the cycloheximide concentration was 0.35 mM. An IPL-41 medium with 0.01 mM, 0.07 mM and 0.7 mM cycloheximide was also prepared. The rehydration of dried cells was performed using 1 ml of I PL-41 medium containing cycloheximide. One hour after rehydration and 24 hours after rehydration, the same operation as in 3.6 above was performed, and the fluorescence intensity was measured and analyzed. The ΔF/F0 was as described above. FIG. 7A and FIG. 7B are graphs showing changes in fluorescence intensity of the Orco-Or47a stable expression cell line response to VUAA1 and pentyl acetate, respectively, one hour after drying and rehydration. FIGS. 7C and 7D are graphs showing changes in fluorescence intensity, respectively, in response to VUAA1 and pentyl acetate of Orco-Or47a stable expression cell lines 24 hours after drying and rehydration.

[1] = 1 hour after drying-rehydration
[2] = 24 hours after rehydration, without CHX

Row | Compound | response (fluorescence intensity) of immobilized cells (Orco) | response as change in fluorescence intensity (ΔF/F0) (Orco-Or47a; [1]) | response as change in fluorescence intensity (ΔF/F0) (Orco-Or47a; [2])
1 | CCc1ccc(NC(=O)CSc2nnc(-c3cccnc3)n2CC)cc1 [VUAA1, N-(4-ethylphenyl)-2-{[4-ethyl-5-(pyridin-3-yl)-4H-1,2,4-triazol-3-yl]sulfanyl}acetamide] | did respond | specific responses | strongly enhanced
2 | CCCCCOC(C)=O [pentyl acetate] | did not respond | specific responses | strongly enhanced

— patent US20250197799A1, “CELLS DERIVED FROM POLYPEDILUM VANDERPLANKI AND ODOR SENSOR EQUIPPED THEREWITH” (University of Maryland, College Park, priority 2022, published 2025)
